pIC50: −log10 of the molar value. Calls of active or inactive are those of the source. No cut-off for these calls is given here.
Key:
Beta-secretase 1 [1] = target: T1, Beta-secretase 1 (Homo sapiens, UniProt P56817)
Description: Competitive inhibition of human recombinant BACE1 by Lineweaver-Burke plot analysis

Beta-secretase 1 [2] = target: T1, Beta-secretase 1; assay: Inhibition of human recombinant BACE1 after 60 mins by fluorescence assay
Beta-secretase 1 [3] = target: T1, Beta-secretase 1; assay: Inhibition of human recombinant BACE1 at 100 to 500 uM after 60 mins by fluorescence assay

T1 sequence (P56817 whole entry): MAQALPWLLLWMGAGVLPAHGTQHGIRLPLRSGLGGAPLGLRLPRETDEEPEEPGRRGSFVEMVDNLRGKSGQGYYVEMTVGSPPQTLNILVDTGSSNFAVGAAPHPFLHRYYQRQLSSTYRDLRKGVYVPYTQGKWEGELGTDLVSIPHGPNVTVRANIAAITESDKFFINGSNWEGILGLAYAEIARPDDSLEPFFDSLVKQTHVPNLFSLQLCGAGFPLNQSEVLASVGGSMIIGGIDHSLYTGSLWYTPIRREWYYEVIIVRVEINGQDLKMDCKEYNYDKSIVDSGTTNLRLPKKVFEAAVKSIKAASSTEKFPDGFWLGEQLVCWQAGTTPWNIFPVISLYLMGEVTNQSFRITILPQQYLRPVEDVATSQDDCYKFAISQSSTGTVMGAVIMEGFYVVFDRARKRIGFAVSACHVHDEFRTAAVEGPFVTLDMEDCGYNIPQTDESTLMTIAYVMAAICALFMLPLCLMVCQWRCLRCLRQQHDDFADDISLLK

Question: `COC(=O)CCc1c(O)cc2occc2c1OCC=C(C)C` was tested. Which Kic (Beta-secretase 1 [1]) did it give?
Answer: Its Kic is 11.3 µM.

Question: And the pIC50 (Beta-secretase 1 [2])?
Answer: Its pIC50 is 4.52.

Question: And the inhibition (Beta-secretase 1 [2])?
Answer: The inhibition was “Dose-dependent effect”.

Question: How did the pIC50 (Beta-secretase 1 [2]) turn out when `CC(C)=CCOc1c2ccoc2cc2oc(=O)ccc12` [ISOIMPERATORIN] was run?
Answer: Its pIC50 is 3.61.

Question: And the inhibition (Beta-secretase 1 [2])?
Answer: Its inhibition is “Dose-dependent effect”.

Question: `O=c1ccc2cc3ccoc3c(O)c2o1` was tested. Which inhibition (Beta-secretase 1 [3]) did it give?
Answer: Its inhibition is “inactive”.

Question: What about the inhibition (Beta-secretase 1 [2]) of the same compound?
Answer: The inhibition was “Dose-dependent effect”.

Question: What does the source list for `COC(=O)CCc1c(OC)cc2occc2c1OCC=C(C)C`?
Answer: pIC50 (Beta-secretase 1 [2]): 4.79; inhibition (Beta-secretase 1 [2]): Dose-dependent effect

Question: `CC(C)=CCOc1c(CCC(=O)O)c(O)cc2occc12` was tested. Which pIC50 (Beta-secretase 1 [2]) did it give?
Answer: Its pIC50 is 3.73.

Question: What about the inhibition (Beta-secretase 1 [2]) of the same compound?
Answer: The inhibition was “Dose-dependent effect”.

Question: With `CC(C)=CCOc1c2occc2cc2ccc(=O)oc12` [PENTOSALEN] as the compound, how does the pIC50 (Beta-secretase 1 [2]) read?
Answer: Its pIC50 is 4.04.

Question: What about the inhibition (Beta-secretase 1 [2]) of the same compound?
Answer: Its inhibition is “Dose-dependent effect”.

Question: How did the pIC50 (Beta-secretase 1 [2]) turn out when `COc1cc2occc2c(OCC=C(C)C)c1CCC(=O)O` was run?
Answer: The pIC50 was 3.69.

Question: And the inhibition (Beta-secretase 1 [2])?
Answer: Its inhibition is “Dose-dependent effect”.

From ChEMBL document CHEMBL1157685, “Biotransformation of isoimperatorin and imperatorin by Glomerella cingulata and beta-secretase inhibitory activity” (Bioorg Med Chem, 2010)
